The values below come from patent publication US20250026722A1, “SUBSTITUTED QUINOLINES AS IMPROVED NF-KB-INDUCING KINASE (NIK) INHIBITORS” (YUKIN THERAPEUTICS, priority 2021, published 2025).

Structures are written as SMILES.

Test [1] deals with A375 cells. The test can be described thus: Proliferation assay in A375 cells (confocal imaging after seven days with compound). The note with it: Homo sapiens, A-375, 168 h, seven days in the presence of compounds. The test is classed as cell-based. On the procedure: (§1) A375 (American Type Culture Collection; CRL-1619) cells were seeded into 96 well plates (1,200 cells/well; Perkin Elmer; 6005225) and incubated overnight at 37° C., 5% CO2. Compounds prepared in media (Dulbecco's modified Eagle medium+10% foetal bovine serum+1% penicillin/streptomycin) were added to the cells and incubated for four days at 37° C., 5% CO2. Media was then aspirated from the cells and freshly prepared compounds were added to the cells, which were then incubated for a further three days at 37° C., 5% CO2. After a total of seven days in the presence of compounds, media was removed, and the cells were labelled with Hoechst (1 in 1,000; Thermo Fisher; 62249), TOTO™-3 (1 in 10,000; Thermo Fisher; T3604) and SPiDER βGAL (1.0 μM; Sigma-Aldrich; 94433) prepared in Hanks' Balanced Salt Solution supplemented with 1.0 mM HEPES buffer for 20 minutes at 37° C. Cells were imaged by confocal microscopy using an ImageXpress (Molecular Devices) at ×10 magnification. Images were analysed using MetaXpress software (Molecular Devices).

Test [2] relates to A375 cells. Put plainly: Senescence assay in A375 cells (SPiDER βGAL labelling, confocal imaging after seven days with compound). The test is classed as cell-based. The settings on record: Homo sapiens, A-375, 168 h, seven days in the presence of compounds. The procedure:
as §1

For test [3], the target named is T1, NIK (Homo sapiens, UniProt Q99558).
T1 construct: endogenous in cells; host or cells: A375 cells
Put plainly: NIK degradation Western-blot experiments in A375 cells. The note with it: 10 μM for 72 hrs, 5 μM MG132 during last 4 hours. In kind it is cell-based. On the procedure:
A375 cells were plated in 6-well dishes at 2,000 cells/cm^2. The day after, cells were treated for 72 hrs with compounds of the examples at 10 μM. Cells were treated during the last 4 hours of the treatment period with 5 μM MG132 to inhibit proteasomal degradation. For protein isolation, cells were washed twice with PBS and then lysed using RIPA Buffer (1×) containing protease and phosphatase inhibitors. Following sonication, the lysate was centrifuged at 20,000 g for 10 min at 4° C. and the supernatants were collected and assayed for protein concentration using the BCA kit (Pierce).
Total protein (20 μg) was separated by electrophoresis on 10% SDS-polyacrylamide gels and transferred to PVDF membranes (Millipore). Blocking was performed in Tris-buffer saline containing 3% BSA. Membranes were incubated with the appropriate primary antibodies overnight at 4° C. (NIK, CST #4994, 1/2000) and β-actin (Santa-Cruz, sc-47778, 1/5000). After washing three times, membranes were incubated with horseradish peroxidase-conjugated secondary antibodies for 1 h. Bound antibodies were detected using an enhanced chemiluminescence plus kit (GE Healthcare). NIK degradation was tested and confirmed for the compounds of Examples 3, 4, 5, 6, 10 and 11 (see the corresponding table below). For illustration, the Western blot analysis of NIK degradation in cells treated with the compound of Example 3 (at 10 μM for 72 h) is shown in FIG. 1.

Test [4] deals with T1, NIK. The settings on record: pan kinase inhibitor, literature; cited from earlier work.

T1 sequence (Q99558 whole entry): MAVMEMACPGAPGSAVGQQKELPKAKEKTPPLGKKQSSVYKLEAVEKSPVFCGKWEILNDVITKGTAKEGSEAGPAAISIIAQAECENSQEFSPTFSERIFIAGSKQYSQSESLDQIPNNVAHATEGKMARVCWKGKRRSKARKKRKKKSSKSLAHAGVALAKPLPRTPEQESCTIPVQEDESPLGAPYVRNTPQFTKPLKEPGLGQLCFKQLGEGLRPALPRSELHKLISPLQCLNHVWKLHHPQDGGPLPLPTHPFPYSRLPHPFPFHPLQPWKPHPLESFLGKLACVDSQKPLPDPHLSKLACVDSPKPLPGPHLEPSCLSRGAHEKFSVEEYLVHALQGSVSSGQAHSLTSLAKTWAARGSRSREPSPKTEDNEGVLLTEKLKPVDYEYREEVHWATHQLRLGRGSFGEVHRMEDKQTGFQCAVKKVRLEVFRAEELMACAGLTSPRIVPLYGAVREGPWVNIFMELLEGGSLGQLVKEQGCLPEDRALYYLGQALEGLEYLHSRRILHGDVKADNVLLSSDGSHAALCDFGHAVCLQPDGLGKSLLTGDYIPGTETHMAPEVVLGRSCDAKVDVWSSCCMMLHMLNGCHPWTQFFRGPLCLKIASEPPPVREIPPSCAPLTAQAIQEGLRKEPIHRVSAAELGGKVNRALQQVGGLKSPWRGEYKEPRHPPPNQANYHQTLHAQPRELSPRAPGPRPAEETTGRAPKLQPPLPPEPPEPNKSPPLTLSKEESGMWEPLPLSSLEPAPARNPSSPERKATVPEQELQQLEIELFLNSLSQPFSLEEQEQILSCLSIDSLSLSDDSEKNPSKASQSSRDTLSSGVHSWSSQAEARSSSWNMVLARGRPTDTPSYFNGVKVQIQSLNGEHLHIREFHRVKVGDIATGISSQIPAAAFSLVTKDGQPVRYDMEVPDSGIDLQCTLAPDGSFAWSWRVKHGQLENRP

As for `COCCOc1ccc(Nc2ccnc3cc(Cl)ccc23)cc1` [Reference compound (*), 7-chloro-N-(4-(2-methoxyethoxy)phenyl)quinolin-4-amine], the IC50 – broadly, the concentration needed to halve the response being measured – in the test with A375 cells [1] stood at 1690 nM. Besides, the EC50 (in general, the midpoint of the concentration-response curve) with A375 cells [2] amounted to 2490 nM. In the case of `COCCOc1ccc(Nc2ccnc3cc(OC)ccc23)c(OC)c1` [Example 3, 7-methoxy-N-(2-methoxy-4-(2-methoxyethoxy)phenyl)quinolin-4-amine], the NIK degradation activity result at NIK [3] is reported as “confirmed”. Regarding `COCCOc1ccc(Nc2ccnc3cc(C)ccc23)c(OC)c1` [Example 10, N-(2-methoxy-4-(2-methoxyethoxy)phenyl)-7-methylquinolin-4-amine], the IC50 in the test with A375 cells [1] amounted to 195 nM. The EC50 in the test on A375 cells [2] is 670 nM. For the same molecule, the NIK degradation activity entry at NIK [3] is “confirmed”. In the case of `CN[C@@H]1C[C@H]2O[C@@](C)([C@@H]1OC)n1c3ccccc3c3c4c(c5c6ccccc6n2c5c31)C(=O)NC4` [staurosporine], the “inhibition of the kinase activity (NIK)” value on NIK [4] was “micromolar level”. `COc1ccc(Nc2ccnc3cc(Cl)ccc23)cc1O` [Reference compound (**), 7-chloro-N-(3-(hydroxy)-4-(methoxy)phenyl)quinolin-4-amine]: the IC50 with A375 cells [1] is greater than 10000 nM. Also, in the test on A375 cells [2], the EC50 is greater than 10000 nM. In the case of `COCCOc1ccc(Nc2ccnc3cc(C(F)F)ccc23)c(OC)c1` [Example 9, 7-(difluoromethyl)-N-(2-methoxy-4-(2-methoxyethoxy)phenyl)quinolin-4-amine], the half-maximal inhibitory concentration (IC50) in the test on A375 cells [1] worked out at 205 nM. Moreover, the EC50 with A375 cells [2] amounted to 200 nM. The like results for `COCCOc1ccc(Nc2ccnc3cc(C)ccc23)cc1` were, in that order, 1900 nM and 2460 nM. On the same counts, the results for `COCCOc1ccc(Nc2ccnc3cc(C(F)F)ccc23)cc1` are 1740 nM and 2310 nM.

`COCCOc1ccc(Nc2ccnc3cc(-c4cnn(C)c4)ccc23)c(OC)c1` [Example 4, N-(2-methoxy-4-(2-methoxyethoxy)phenyl)-7-(1-methyl-1H-pyrazol-4-yl)quinolin-4-amine]: the NIK degradation activity entry at NIK [3] is recorded as “confirmed”. On the same count and under the same terms, in the case of `COCCOc1ccc(Nc2ccnc3cc(N4CCN(C)CC4)ccc23)c(OC)c1` [Example 6, N-(2-methoxy-4-(2-methoxyethoxy)phenyl)-7-(4-methylpiperazin-1-yl)quinolin-4-amine] it was “confirmed”; in that of `COCCOc1ccc(Nc2ccnc3cc(C4=CCN(C)CC4)ccc23)c(OC)c1` [Example 5, N-(2-methoxy-4-(2-methoxyethoxy)phenyl)-7-(1-methyl-1,2,3,6-tetrahydropyridin-4-yl)quinolin-4-amine], “confirmed”; in that of `COCCOc1ccc(Nc2ccnc3cc(C4CCN(C)CC4)ccc23)c(OC)c1` [Example 11, N-(2-methoxy-4-(2-methoxyethoxy)phenyl)-7-(1-methylpiperidin-4-yl)quinolin-4-amine], “confirmed”.
